Experimental data from patent publication US11059855B2, “Antimicrobial peptides and methods of making and using same” (priority 2017, dated 2021).
Like-named read-outs stand apart in the source and are kept apart here.

What was measured:
[1] = previous work; cited from earlier work
[2] = system: Staphylococcus aureus biofilm; assay: Activity against biofilm, S. aureus; type: cell-based; settings: 100 μM peptide concentration, 3 hr treatment
Procedure: (§1) Selected analogues were tested with each (13A). Escherichia coli biofilm, (13B). Staphylococcus aureus biofilm, and (13C) Pseudomonas aeruginosa biofilm.
(§2) However, most of the LDKA analogues fail to treat S. aureus and P. aeruginosa biofilms. Only K7H and 7F3 are capable to reduce S. aureus biofilms by ˜50% with 100 μM peptide concentration, and none of the analogues work against P. aeruginosa biofilms (FIGS. 13a-13c).

[3] = Hemolysis assay; type: cell-based, human; settings: human
Procedure: Fresh human red blood cells were obtained from Interstate Blood Bank, Inc., and thoroughly washed in PBS until the supernatant was clear. hRBC concentration was determined using a standard hemocytometer. In hemolysis assays serial dilutions of peptide were prepared, followed by the addition of 2×10^8 hRBC/mL. After incubation for 1 hr at 37° C. the cells were centrifuged and the released hemoglobin was measured by optical absorbance of the heme group (410 nm). Negative control was buffer only (0% lysis), and the positive control was 20 μM melittin and distilled water (100% lysis). The samples were done in triplicate.

[4] = Circular dichroism secondary structure (Dichroweb), peptide only; type: physicochemical; settings: 20 °C
Procedure: (§3) Dichroweb software analyzes the secondary structure of LDKA peptides from circular dichroism spectroscope. The table presents the percentage of each helix and strand structure at different temperature. The data are analyzed using CONTIN-LL method and Reference Set 4 (Optimised for 190-240 nm).
(§4) Peptide solutions (peptide concentration is 50 μM) were titrated with POPC and POPG LUVs (50, 100, 250, 500, 1000 μM) and the corresponding changes CD spectra collected. Analysis of these spectra using CD tools and Dichroweb provides an ensemble average of the changes in secondary structure in the presence of POPC and POPG LUVs (dichroweb.cryst.bbk.ac.uk), which gives a direct measure of the binding free energies for each peptide.

[5] = Circular dichroism secondary structure (Dichroweb), with POPC; type: physicochemical
Procedure: as §3, §4

[6] = system: P. aeruginosa; assay: Bacterial minimum inhibitory concentration (MIC), P. aeruginosa; type: cell-based, Pseudomonas aeruginosa; settings: 75 μM maximum tested; NDA = not determinable
Procedure: (§5) Escherichia colt strain ATCC 25922, Staphylococcus aureus strain ATCC 25923, and Pseudomonas aeruginosa strain ATCC PAO1 were used in this study. Overnight cultures were subcultured to log phase (OD600=0.3-0.6) after which cell counts were determined by measuring the OD600 (OD600 1.0=1.5×10^8 CFU/mL for S. aureus, 5×10^8 CFU/mL for E. colt, and 2.04×10^8 CFU/mL for P. aeruginosa). Bacteria in minimal media mere added to serially diluted peptides and incubated for 3 hr, followed by the addition of full growth media. After overnight incubation, the optical density of the wells was recorded on a plate reader to determine whether they were sterilized (OD<0.08) or were at stationary phase growth (OD600>0.5). Intermediate values, which were rare, were considered positive for growth. Average minimum sterilizing concentrations were calculated from the lowest peptide concentration that sterilized the bacteria in each serial dilution. The samples were done in sextuplet.

[7] = Circular dichroism secondary structure (Dichroweb), with POPG; type: physicochemical
Procedure: as §3, §4

[8] = system: S. aureus; assay: Bacterial minimum inhibitory concentration (MIC), S. aureus; type: cell-based, Staphylococcus aureus; settings: 75 μM maximum tested; NDA = not determinable
Procedure: as §5

[9] = provided by the distributor, GenScript; cited from earlier work
[10] = ANTS/DPX leakage assay, POPC; type: biochemical; settings: P:L = 1:1000, pH 7 phosphate buffer
Procedure: (§6) 5 mM ANTS and 12.5 mM DPX were entrapped in 0.1 μm diameter extruded vesicles with lipids. Gel filtration chromatography of Sephadex G-100 (GE Healthcare Life Sciences Inc.) was used to remove external free ANTS/DPX from LUVs with entrapped contents. […] Leakage was measured after 3 hr incubation. 10% Triton was used as the positive control to measure the maximum leakage of the vesicle. Fluorescence emission spectra were recorded using excitation wavelength (Ex: 350 nm) and emission wavelength (Em: 510 nm) for ANTS/DPX using Synergy H1 Hybrid Multi-Mode Reader.
(§7) This detects and quantifies the release of a small fluorescent dye (ANTS/DPX; MW=˜400 Da) encapsulated in LUVs after addition of library peptides. Neutral POPC LUVs serve as a simple model for mammalian membranes, while charged POPG LUVs mimic bacterial membranes enriched in anionic lipids.

[11] = system: Escherichia coli biofilm; assay: Activity against biofilm, E. coli; type: cell-based; settings: 67-150 μM peptide, 3 hr treatment
Procedure: as §1, §2

[12] = 3-kDa dextran macromolecule release assay, POPC; type: biochemical; settings: P:L = 1:1000, pH 7 phosphate buffer
Procedure: Several different size dextrans were prepared and labelled with both TAMRA and biotin. Conjugated dextran was entrapped in POPC LUVs as described above. External dextran was removed by incubation with immobilized streptavidin. Streptavidin labelled with an Alexa-488 fluorophore was added during the leakage experiment with the peptide as previous described.^5 The sample was then incubated for 3 hr before measuring Alexa-488 fluorescence. A control without added peptide served as the 0% leakage signal and addition of 0.05% vol. Triton X-100 was used to determine 100% leakage.

[13] = ANTS/DPX leakage assay, POPG; type: biochemical; settings: P:L = 1:1000, pH 7 phosphate buffer
Procedure: as §6, §7

[14] = system: methicillin-resistant Staphylococcus aureus (MRSA); type: cell-based; settings: 75 μM maximum tested; NDA = not determinable
[15] = Membrane selectivity from high-throughput dye leakage screen; type: biochemical; settings: PC = POPC, PG = POPG
Excerpt: as §7

[16] = system: ciprofloxacin-resistant E. coli
Procedure: “N.D.” means “not determined”.
Ceftazidime is active on the bacteria's cell wall and interferes with bacterial cell wall formation.^38,39 Ciprofloxacin is able to inhibit DNA gyrase, type II topoisomerase, and topoisomerase IV to separate bacterial DNA and inhibits cell division.^40 Streptomycin and gentamicin are antibiotics that can interrupt and inhibit protein synthesis.^41,42 E. coli strain ATCC 25922 cultures were grown in the presence of each of these antibiotics at elevated concentration for 10 generations.

[17] = Pore-size characterization by 3-kDa dextran release; type: biochemical; settings: ‡Large pore for PG only
Excerpt: Eight LDKA peptides with different lipid selectivity and pore sizes were selected from the high-throughput screen and sequenced. […] The most common mutation is L to A, occurred 13 times and in 7 out of the 8 peptides, followed by A to L, which occurred 6 times in 5 peptides, L to D which occurred 3 times in 3 peptides, and L to P that occurred once. Lysine (K) is not favorable to be shown at the position 6, 8, 10, 12, and 13, which is the non-polar face of the helical structure. […] More specifically, the analogs only induce leakage from anionic POPG vesicles have 4-5 leucines, which is less than the analogs that can porate both POPC and POPG vesicles and have 6-7 leucines in their sequences.

[18] = 3-kDa dextran macromolecule release assay, POPG; type: biochemical; settings: P:L = 1:1000, pH 7 phosphate buffer

| Substance | Peptide-only, Helix [4] | Peptide-only, Strand [4] | Peptide-POPC, Helix ([5]; 20 °C) | Peptide-POPC, Strand ([5]; 20 °C) | Peptide-POPC, Helix ([5]; 45 °C) | Peptide-POPC, Strand ([5]; 45 °C) | Peptide-POPC, Helix ([5]; 70 °C) | Peptide-POPC, Strand ([5]; 70 °C) | Peptide-POPC, Helix ([5]; 95 °C) | Peptide-POPC, Strand ([5]; 95 °C) | Minimum Inhibitory Concentration, P. aeruginosa [6] | Peptide-POPG, Helix ([7]; 20 °C) | Peptide-POPG, Strand ([7]; 20 °C) | Peptide-POPG, Helix ([7]; 45 °C) | Peptide-POPG, Strand ([7]; 45 °C) | Peptide-POPG, Helix ([7]; 70 °C) | Peptide-POPG, Strand ([7]; 70 °C) | Peptide-POPG, Helix ([7]; 95 °C) | Peptide-POPG, Strand ([7]; 95 °C) | Solubility, DMSO [9] | also measured |
| --- | --- | --- | --- | --- | --- | --- | --- | --- | --- | --- | --- | --- | --- | --- | --- | --- | --- | --- | --- | --- | --- |
| GL5RL5G: polyleucine-based peptide of the acetyl-GLnRLnG-amide family, n=5 (SEQ ID NO: 28) (Ac-GLLLLLRLLLLLG-NH2) | – | – | – | – | – | – | – | – | – | – | – | – | – | – | – | – | – | – | – | – | ΔGS→TM [1]: 2.1 ± 0.2 kcal/mol |
| GL6RL6G: polyleucine-based peptide of the acetyl-GLnRLnG-amide family, n=6 (SEQ ID NO: 29) (Ac-GLLLLLLRLLLLLLG-NH2) | – | – | – | – | – | – | – | – | – | – | – | – | – | – | – | – | – | – | – | – | ΔGS→TM [1]: 0.5 ± 0.3 kcal/mol |
| H-GLLDLLHLLLKAAGW-NH2 [Peptide K7H] | 62% | 4% | 65% | 5% | 80% | 1% | 80% | 2% | 72% | 3% | does not inhibit and NDA | 53% | 11% | 59% | 8% | 77% | 2% | 77% | 2% | 15 mg/mL | Reduction of S. aureus biofilms [2]: ~50%; CC50 at 1 hr [3]: 2300 nM; Minimum Inhibitory Concentration, S. aureus [8]: 3 µM; Solubility, DPBS pH 7.1 [9]: <0.1 mg/mL; Solubility, Ultrapure Water [9]: 1 mg/mL |
| H-GLDDLLKALLKAAGW-NH2 [Peptide 4H9] | 63% | 2% | 82% | 0% | 77% | 0% | 66% | 4% | 47% | 11% | NDA | 93% | 0% | 91% | 0% | 83% | 0% | 73% | 1% | 15 mg/mL | ANTS/DPX release, POPC [10]: 110%; Elimination of E. coli biofilm [11]: ~50%; HC50 at 1 hr ([3]; peptide concentration lysing 50% of red blood cells, estimated using polynomial regression, read-out: Hemolysis Assay LC50): 56.6 µM; 3-kDa Dextran release, POPC [12]: -4%; ANTS/DPX release, POPG [13]: 43%; Minimum Inhibitory Concentration, MRSA [14]: NDA; Membrane selectivity (POPC vs POPG vesicles) [15]: PC > PG; MIC, ciprofloxacin-resistant E. coli [16]: completely fail; Pore size [17]: Small; Solubility, DPBS pH 7.1 [9]: 10 mg/mL; Solubility, Ultrapure Water [9]: 5 mg/mL |
| H-GLDDLAKLLLKLAGW-NH2 [Peptide 25B2] | 67% | 3% | 80% | 3% | 90% | 1% | 81% | 1% | 61% | 6% | NDA | 98% | 0% | 98% | 0% | 93% | 0% | 87% | 1% | 15 mg/mL | ANTS/DPX release, POPC [10]: 98%; Elimination of E. coli biofilm [11]: ~50%; HC50 at 1 hr [3]: 35.5 µM; 3-kDa Dextran release, POPC [12]: -2%; ANTS/DPX release, POPG [13]: 99%; Minimum Inhibitory Concentration, MRSA [14]: NDA; 3-kDa Dextran release, POPG [18]: 100%; Membrane selectivity (POPC vs POPG vesicles) [15]: Non-selective; MIC, ciprofloxacin-resistant E. coli [16]: completely fail; Pore size [17]: Large‡; Solubility, DPBS pH 7.1 [9]: <0.1 mg/mL; Solubility, Ultrapure Water [9]: 10 mg/mL |
